Marks after values point to notes of the source that are not given here.
Legend:
[1] = tested on: alloxan induced diabetic rats; experiment: Alloxan induced diabetic rats: hydroxychloroquine with glimepiride; assay type: in vivo, Wistar rats; conditions: nine days, HCQ 160 or GLM 8 mg/kg/day p.o.
Description: Thirty Wistar rats weighing 150-200 g of either sex were divided into six groups consisting of five rats each. Experimental diabetes was induced in rats by injecting alloxan monohydrate intraperitonially at a dose of 90 mg/kg body weight. Rats with blood sugar level of 250-350 mg/dl, were considered as diabetic and employed in the study. Group 1 (normal control) consisted of normal rats that neither received alloxan monohydrate nor any drug. Group 2′ served as diabetic control which received vehicle orally. […] The study drugs were administered for nine days.

[2] = cited from earlier work
[3] = tested on: alloxan induced diabetic rats; experiment: Alloxan induced diabetic rats: hydroxychloroquine with pioglitazone; assay type: in vivo, Wistar rats; conditions: nine days, HCQ 160 or PIO 10 mg/kg/day p.o.
Description: (§1) Thirty Wistar rats weighing 150-200 g of either sex were divided into six groups consisting of five rats each. Experimental diabetes was induced in rats by injecting alloxan monohydrate intraperitonially at a dose of 90 mg/kg body weight. Rats with blood sugar level of 250-350 mg/dl, were considered as diabetic and employed in the study. Group 1 (normal control) consisted of normal rats that neither received alloxan monohydrate nor any drug. Group 2 served as diabetic control which received vehicle orally. […] The study drugs were administered for nine days.

[4] = cited from earlier work; remark: listed apart in the source
[5] = tested on: adults with rheumatoid arthritis; conditions: cited from earlier work
[6] = tested on: alloxan induced diabetic rats; experiment: Alloxan induced diabetic rats: hydroxychloroquine with metformin; assay type: in vivo, Wistar rats; conditions: nine days, HCQ 160 or MET 500 mg/kg/day p.o.
Description: as §1

[7] = tested on: sulphonylurea-refractory patients with poorly controlled Type 2 diabetes; conditions: cited from earlier work
[8] = patients treated with hydroxychloroquine

SMILES	Blood Glucose (mg/dl) Final [1] [mg/dL]	Body Weight (g) Final [1] [g]	Alb. (Albumin) [1]	Blood Glucose (% mean change) [1]	Body Weight (% mean change) [1]	HDL (High Density Lipoprotein) [1]	Hb (Hemoglobin) [1]	TC (Total Cholesterol) [1]	TG (Triglyceride) [1]	Urea [1]	Blood Glucose (mg/dl) Final [3] [mg/dL]	Body Weight (g) Final [3] [g]	Alb. (Albumin) [3]	Blood Glucose (% mean change) [3]	Body Weight (% mean change) [3]	HDL (High Density Lipoprotein) [3]	Hb (Hemoglobin) [3]	TC (Total Cholesterol) [3]	TG (Triglyceride) [3]	Urea [3]	other results
CCC1=C(C)CN(C(=O)NCCc2ccc(S(=O)(=O)NC(=O)N[C@H]3CC[C@H](C)CC3)cc2)C1=O [GLM, glimepiride]	157.2 ± 17.64	170 ± 11.22	3.99 ± 0.24^a g/dl	(−46.83)^d %	(−3.40)^c %	33 ± 1.58^b mg/dl	14.04 ± 1.90^b g/dl	169.40 ± 7.05^b mg/dl	113.40 ± 3.64^b mg/dl	30.26 ± 0.86^b mg/dl	–	–	–	–	–	–	–	–	–	–	Protein (T) (Total Protein) [1]: 5.78 ± 1.22^b g/dl
CCN(CCO)CCCC(C)Nc1ccnc2cc(Cl)ccc12 (centres unmarked) [HCQ, hydroxychloroquine]	263.80 ± 2.04	151.60 ± 13.16	4.03 ± 0.13^a g/dl	(−10.81)^c %	(−10.51)^b %	35.80 ± 2.28^b mg/dl	12.12 ± 1.27^a g/dl	178.40 ± 2.70^c mg/dl	117.20 ± 2.28^b mg/dl	29.70 ± 1.37^b mg/dl	263.80 ± 2.04	151.60 ± 13.16	4.03 ± 0.13^a g/dl	(−10.81)^c %	(−10.51)^b %	35.80 ± 2.28^b mg/dl	12.12 ± 1.27^a g/dl	178.40 ± 2.70^c mg/dl	117.20 ± 2.28^b mg/dl	29.70 ± 1.37^b mg/dl	serum levels of cholesterol, triglycerides, and LDL ([2]; irrespective of concomitant steroid administration): high statistical association with low serum levels; HDL and % HDL [2, 8]: rise; decrease in serum levels of cholesterol [2, 8]: approximately 10%; Blood Glucose (% mean change) ([3]; listed as hydroxychloroquine): −10.81%; Blood Glucose (% mean change) ([1]; listed as hydroxychloroquine): −10.81%; red blood cell aggregation ([4]; humans, without prolonging the bleeding time): reduction; plasma viscosity as well as whole blood viscosity ([4]; postoperative patients): significant reduction; risk of diabetes [5]: reduced risk of diabetes; Blood Glucose (mg/dl) Final [6]: 263.80 ± 2.04 mg/dL; Body Weight (g) Final [6]: 151.60 ± 13.16 g; Alb. (Albumin) [6]: 4.03 ± 0.13^a g/dl; Blood Glucose (% mean change) [6]: (−10.81)^c %; Body Weight (% mean change) [6]: (−10.51)^b %; HDL (High Density Lipoprotein) [6]: 35.80 ± 2.28^b mg/dl; Hb (Hemoglobin) [6]: 12.12 ± 1.27^a g/dl; TC (Total Cholesterol) [6]: 178.40 ± 2.70^c mg/dl; TG (Triglyceride) [6]: 117.20 ± 2.28^b mg/dl; Urea [6]: 29.70 ± 1.37^b mg/dl; Blood Glucose (% mean change) ([6]; listed as hydroxychloroquine): −10.81%; glycemic control [7]: improved glycemic control
CN(C)C(=N)N=C(N)N [MET, metformin]	–	–	–	–	–	–	–	–	–	–	–	–	–	–	–	–	–	–	–	–	Blood Glucose (mg/dl) Final [6]: 148.8 ± 17.35 mg/dL; Body Weight (g) Final [6]: 173.8 ± 7.19 g; Alb. (Albumin) [6]: 4.52 ± 1.12^a g/dl; Blood Glucose (% mean change) [6]: (−47.58)^d %; Body Weight (% mean change) [6]: (−10.51) c %; HDL (High Density Lipoprotein) [6]: 34.40 ± 2.51^b mg/dl; Hb (Hemoglobin) [6]: 12.80 ± 1.25^b g/dl; Protein (T) (Total Protein) [6]: 6.75 ± 0.80^b g/dl; TC (Total Cholesterol) [6]: 170.40 ± 5.90^b mg/dl; TG (Triglyceride) [6]: 111.20 ± 5.93^b mg/dl; Urea [6]: 31.49 ± 1.81^b mg/dl; Blood Glucose (% mean change) ([6]; listed as Metformin): 47.58%
CCc1ccc(CCOc2ccc(CC3SC(=O)NC3=O)cc2)nc1 (centres unmarked) [PIO, pioglitazone]	–	–	–	–	–	–	–	–	–	–	175.8 ± 5.48	159.20 ± 11.21	4.03 ± 0.14^a g/dl	(−41.92)^a %	(−6.07)^a %	35.8 ± 2.28^b mg/dl	12.12 ± 1.27^b g/dl	178.4 ± 2.70^b mg/dl	117.2 ± 2.28^b mg/dl	29.69 ± 1.37^b mg/dl	Protein (T) (Total Protein) [3]: 6.06 ± 1.43^b g/dl
